According to patent publication US20240139211A1, “METHODS AND COMPOSITIONS FOR TREATING AMYOTROPHIC LATERAL SCLEROSIS” (Amylyx Pharmaceuticals, Inc., priority 2022, published 2024):
Where two headings read alike, the source gives them in different places.

Columns and labels:
BCRP = molecular target: T1, BCRP (Homo sapiens, UniProt Q9UNQ0); test: in vitro; conditions: Caco-2 cells, probe 3H-estrone-3-sulfate
T1 sequence (Q9UNQ0 1-655): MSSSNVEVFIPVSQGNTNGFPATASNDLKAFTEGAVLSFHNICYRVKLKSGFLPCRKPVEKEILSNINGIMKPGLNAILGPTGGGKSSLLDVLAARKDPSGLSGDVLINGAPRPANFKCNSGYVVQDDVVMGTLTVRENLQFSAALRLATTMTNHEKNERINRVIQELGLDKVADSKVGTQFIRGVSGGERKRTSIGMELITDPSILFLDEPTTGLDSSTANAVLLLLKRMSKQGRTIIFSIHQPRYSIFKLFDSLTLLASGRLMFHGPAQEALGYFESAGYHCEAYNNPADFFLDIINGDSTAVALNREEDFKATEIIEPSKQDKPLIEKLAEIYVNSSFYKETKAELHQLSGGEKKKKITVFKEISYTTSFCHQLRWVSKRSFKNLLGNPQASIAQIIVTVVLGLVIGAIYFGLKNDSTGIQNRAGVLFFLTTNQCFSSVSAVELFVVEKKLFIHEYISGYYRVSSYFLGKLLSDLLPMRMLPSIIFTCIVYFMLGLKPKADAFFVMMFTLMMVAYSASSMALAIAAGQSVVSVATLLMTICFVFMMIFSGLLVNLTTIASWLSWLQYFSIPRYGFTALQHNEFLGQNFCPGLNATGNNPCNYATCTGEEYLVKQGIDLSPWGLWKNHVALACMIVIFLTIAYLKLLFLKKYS

CYP1A2 = CYP1A2 enzyme activity induction in hepatocyte cultures
in vivo = conditions: male, CD (Sprague-Dawley) IGS, rat, po, 840 mg/kg
OAT1 = molecular target: T2, OAT1 (Homo sapiens, UniProt Q4U2R8); test: OAT1 inhibition, PAH uptake in transfected HEK cells
T2 sequence (Q4U2R8 1-563): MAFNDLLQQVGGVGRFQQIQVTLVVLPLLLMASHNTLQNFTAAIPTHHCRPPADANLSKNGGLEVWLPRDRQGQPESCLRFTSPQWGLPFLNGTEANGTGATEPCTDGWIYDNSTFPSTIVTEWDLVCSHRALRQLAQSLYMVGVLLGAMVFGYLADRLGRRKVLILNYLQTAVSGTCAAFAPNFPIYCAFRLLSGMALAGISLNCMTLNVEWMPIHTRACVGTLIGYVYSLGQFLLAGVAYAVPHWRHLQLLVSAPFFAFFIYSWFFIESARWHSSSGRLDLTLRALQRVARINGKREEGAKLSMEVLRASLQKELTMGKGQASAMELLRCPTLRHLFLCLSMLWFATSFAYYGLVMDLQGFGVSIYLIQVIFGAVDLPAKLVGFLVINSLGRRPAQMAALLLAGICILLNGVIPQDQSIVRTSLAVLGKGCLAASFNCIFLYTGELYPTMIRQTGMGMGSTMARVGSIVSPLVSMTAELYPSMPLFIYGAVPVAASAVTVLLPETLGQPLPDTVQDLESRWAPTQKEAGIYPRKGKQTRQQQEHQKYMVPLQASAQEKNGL

OCT2 = molecular target: T3, OCT2 (Homo sapiens, UniProt O15244); test: OCT2 inhibition, MPP+ uptake in transfected HEK cells; conditions: read-out: Estimated IC50 toward OCT2; TUDCA and PB present simultaneously
T3 sequence (O15244 1-555): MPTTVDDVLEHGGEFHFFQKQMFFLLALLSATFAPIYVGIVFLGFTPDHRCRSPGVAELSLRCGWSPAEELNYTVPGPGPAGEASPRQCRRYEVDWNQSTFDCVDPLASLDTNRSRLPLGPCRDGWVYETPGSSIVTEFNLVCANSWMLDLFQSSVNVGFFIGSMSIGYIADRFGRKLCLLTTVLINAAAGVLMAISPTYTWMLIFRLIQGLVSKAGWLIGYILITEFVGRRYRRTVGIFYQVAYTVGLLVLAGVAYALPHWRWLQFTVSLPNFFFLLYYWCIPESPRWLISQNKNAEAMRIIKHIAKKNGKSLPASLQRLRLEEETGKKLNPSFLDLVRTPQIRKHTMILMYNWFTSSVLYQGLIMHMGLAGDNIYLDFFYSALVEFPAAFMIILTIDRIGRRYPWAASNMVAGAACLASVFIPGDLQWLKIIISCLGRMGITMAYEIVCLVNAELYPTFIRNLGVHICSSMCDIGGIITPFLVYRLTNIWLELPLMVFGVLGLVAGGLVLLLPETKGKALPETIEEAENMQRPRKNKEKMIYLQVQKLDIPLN

MATE2K = MATE2K (Homo sapiens, UniProt Q86VL8); test: MATE2K inhibition, metformin uptake in transfected HEK cells; conditions: read-out: Estimated IC50 toward MATE2K; TUDCA and PB present simultaneously
human plasma protein = test: Human plasma protein binding; type: in vitro ADME

Chain of MATE2K (Q86VL8 1-566 isoform Q86VL8-3): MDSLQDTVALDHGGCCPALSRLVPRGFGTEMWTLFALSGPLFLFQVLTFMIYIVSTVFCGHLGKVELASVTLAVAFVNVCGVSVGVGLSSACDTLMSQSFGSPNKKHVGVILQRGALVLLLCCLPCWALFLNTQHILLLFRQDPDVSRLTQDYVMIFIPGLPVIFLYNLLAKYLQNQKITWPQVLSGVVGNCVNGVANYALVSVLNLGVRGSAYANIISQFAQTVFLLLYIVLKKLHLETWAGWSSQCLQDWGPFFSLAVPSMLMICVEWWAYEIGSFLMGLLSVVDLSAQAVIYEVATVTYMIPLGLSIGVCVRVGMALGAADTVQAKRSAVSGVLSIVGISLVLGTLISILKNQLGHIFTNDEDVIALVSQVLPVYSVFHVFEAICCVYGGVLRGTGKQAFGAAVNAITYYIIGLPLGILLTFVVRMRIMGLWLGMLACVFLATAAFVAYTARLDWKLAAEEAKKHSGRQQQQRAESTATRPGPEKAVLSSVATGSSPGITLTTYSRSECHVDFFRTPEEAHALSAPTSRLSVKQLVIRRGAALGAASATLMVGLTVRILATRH

C[C@H](CCC(=O)NCC(=O)O)[C@H]1CC[C@H]2[C@@H]3[C@@H](O)C[C@@H]4C[C@H](O)CC[C@]4(C)[C@H]3CC[C@]12C [Glycoursodeoxycholic acid, glycoursodeoxycholic acid]
potency estimated from few doses (BCRP): > 100 µM | Maximum fold induction of CYP1A2 activity (CYP1A2; Donor 1, 72±2 h, three concentrations): 5.93 fold | Maximum fold induction of CYP1A2 activity (CYP1A2; Donor 2): 3.08 fold | Maximum fold induction of CYP1A2 activity (CYP1A2; Donor 3): 9.43 fold | Maximum fold induction of CYP2B6 activity (CYP2B6; Donor 1): 1.50 fold | Maximum fold induction of CYP2B6 activity (CYP2B6; Donor 2): 2.81 fold | Maximum fold induction of CYP2B6 activity (CYP2B6; Donor 3): 1.52 fold

O=C(O)CCCc1ccccc1 [PB, sodium phenylbutyrate]
Tmax (in vivo): 15 to 30 min

tauroursodeoxycholic acid [TUDCA]
IC50 for in vitro inhibition of human OAT1 (OAT1; previous study, converted): 0.035 to 0.111 µg/mL | IC50 (OAT1; read-out: IC50 for in vitro inhibition of human OAT1, previous study (Example 6)): 0.074 to 0.222 µM | IC50 (OCT2): > 162 µM | IC50 (MATE2K): > 810 µM | Human Plasma Protein Binding (%) (human plasma protein): 98.5%
